These results are taken from EP0403957A2, “Optical active 1,4-dihydropyridine derivates” (FUJIREBIO INC., priority 1989, dated 1990).

Like-named read-outs stand apart in the source and are kept apart here.

Assay [1] concerns spontaneously hypertensive rats (aparalytic SHR; male). Briefly: Test for hypotensive activity. Particulars: for HR / T 1/2 / Peak: 300 µg/kg into the abdominal aorta of SHR; for MaxΔMBP: 300 µg/kg into the abdominal aorta of SHR through a canula, blood pressure by pressure transducer; for T 1/2: half time of the hypotensive effect; for Peak: time of peak of the hypotensive effect. In kind it is in vivo. As to the method: The test was carried out by employing spontaneously hypertensive rats (aparalytic SHR; male) according to Nakao et al method.
300 µg/kg of the compound to be tested was administrated into the abdominal aorta of SHR through a canula (previously inserted). The blood pressures in the whole body of the rats were measured with a pressure transducer (MPU-0.5, made by Nihon Koden K.K.).

The subject of a further assay is platelet rich plasma. The assay is described as follows: Test for platelet aggregation-inhibiting activity in rabbit platelet rich plasma. In kind it is cell-based, rabbit (Japanese white; male). The following applies: Oryctolagus cuniculus, 0.5 h, 30 minutes incubation in PRP. As to the method: The mixture was centrifuged at 1100 rpm at 20°C for 15 minutes. The upper layer is a platelet rich plasma (RRP), and the lower layer was centrifuged at 2500 rpm at 20°C for 10 minutes, so that a platelet poor plasma (PPP) was obtained.
10 µℓ of a solution of the compound to be tested with a concentration of 10⁻⁴ moℓ/ℓ was added to 200 µℓ of PRP, and the mixture was subjected to incubation for 30 minutes. To the mixture was added 10 µℓ of a platelet activating factor (PAF)(10 µg/mℓ), or arachidonic acid (AA)(1 mM at final concentration). The extent of the aggregation was measured by Agricometer (NKK, PAT-4A).

The subject of assay [2] is thoracic aortas of rabbits. Briefly: Test for activity of inhibiting KCl-induced contraction. In kind it is cell-based, rabbits (Japanese white rabbit; male). The following applies: 3x10⁻⁶ M compound; 30 mM KCl; helical strips in Krebs-Henseleit solution at 37°C; determined in 60 minutes. The method, then:
Herical strips of thoracic aortas of rabbits (Japanese white rabbit; male) were mounted vertically in organ baths of Krebs-Henselit solution at 37°C for 90 minutes, and then 30 mM of KCl was added to the baths. After 30 minutes, the compound to be tested was added to the baths, and the variations in the tension were recorded by an isometric kymograph, so that the inhibitory activity of the compound was determined in 60 minutes.

For the compound `COC(=O)C1=C(C)NC(C)=C(C(=O)OC/C=C/c2ccc(Cn3ccnc3)cc2)C1c1cccc([N+](=O)[O-])c1` (single isomer, unassigned; (+)) [Example 36, (+)-3-[4-(1-imidazolylmethyl)phenyl]-2-propen-1-yl methyl-1,4-dihydro-2,6-dimethyl-4-(3-nitrophenyl)pyridine-3,5-dicarboxylate], in assay [1], the HR came out at 49.0 beats/min, the MaxΔMBP was found to be 51.4 mmHg, the “T 1/2” value is given as 3.4 min and the Peak is 0.9 min. In the assay with platelet rich plasma (aggregation induced by platelet activating factor (PAF) 10 µg/ml, read-out: IC₅₀ (M) PAF(10 µg/ml)), the IC50 is 0.00011 M. In addition, the IC50 in the assay with platelet rich plasma (Platelet, aggregation induced by arachidonic acid (AA) 1 mM at final concentration, read-out: IC₅₀ (M) AA(1 mM)) was found to be 0.00014 M. Besides, the “Inhibitory Effect on KCℓ-induced contraction(%)” value in assay [2] is 51.1 ± 11.6%.
On to “(-)-3-[4-(-(1-imidazolylmethyl)phenyl]-2-propen-1-yl methyl-1, 4-dihydro-2,6-dimethyl-4-(3-nitrophenyl)pyridine-3,5-dicarboxylate [Example 37]”, for which, in assay [1], the HR is listed as 3.7 beats/min, the MaxΔMBP came to 10.8 mmHg, the “T 1/2” value came out at 0.4 min and the Peak worked out at 0.6 min. Further, in assay [2], the “Inhibitory Effect on KCℓ-induced contraction(%)” value is 16.8 ± 9.8%.
